Data published in US7514257B2, “Zinc finger transcription factor differentiation proteins” (ToolGen, Inc., priority 2001, dated 2009).

Columns and labels:
[1] = system: human insulin gene; test: Insulin gene expression in stably transfected 293 cells (DNA microarray); type: cell-based; conditions: stably transfected human 293 cells
From the text: We stably transfected nucleic acids encoding chimeric zinc finger proteins in human 293 cell lines, and analyzed transformed cells using DNA microarray experiments to characterize genes regulated by each chimeric zinc finger protein (see FIGS. 4, 5, and 9). We have identified a chimeric zinc finger protein (08_D04-p65) that increases the expression of human insulin gene more than 60 fold.
Nucleic acids encoding zinc finger proteins were stably introduced into FlpTRex-293 cell lines (Invitrogen) essentially as described in the manufacturer's protocols. Briefly, the HindIII-XhoI fragment from the pLFD-p65 or pLFD-Kid vectors was subcloned into pcDNA5/FRT/TO (Invitrogen Calif.). This fragment includes a sequence encoding the zinc finger proteins. Resulting plasmids were cotransfected into FlpTRex-293 cells with pOG44 (Invitrogen). Stable integrants that express ZFP-TFs upon doxycycline induction were obtained.
DNA microarrays containing 7458 human EST clones were obtained from Genomictree (Korea). FlpTRex-293 cells stably expressing ZFP-TFs were grown with (+Dox) or without Dox) 1 μg/ml Doxycycline for 48 hours. Total RNA was prepared from each sample. RNA from the −Dox sample was used as a reference (Cy3), and +Dox as the experimental sample (Cy5). […] Spots with sum of median less than 500 were colored red and not analyzed.

[2] = system: human insulin gene; test: Insulin gene expression in transiently transfected HeLa cells; type: cell-based
From the text: To test whether 08_D04-p65 can induce insulin gene expression in different human cell lines, we transiently transfected a nucleic acid encoding 08_D04-p65 into HeLa cells. Expression of the nucleic acid in HeLa cells caused a 80 fold increase in expression of the insulin gene.
Nucleic acids encoding certain zinc finger proteins were also expressed in HeLa cells. pLFD-p65 containing 08-D04 ZFP was transiently transfected into HeLa cells using LIPOFECTAMINE™ 2000 (Invitrogen).

[3] = system: C2C12 myoblasts; test: ALP staining for transdifferentiation of C2C12 myoblasts to osteoblasts; type: cell-based, mouse; conditions: absence of BMP-2, seven days after transfection
From the text: We screened for chimeric zinc finger proteins that induce transdifferentiation of C2C12 myoblasts to osteoblasts in the absence of BMP-2. We transiently transfected a nucleic acid library encoding chimeric zinc finger proteins into C2C12 cells and screened for cells that undergo transdifferentiation in the absence of BMP-2. Seven days after transfection, the transformed cells were stained for alkaline phosphatase (ALP), a marker for osteoblasts (Katagiri, T. et al., (1994) J. Cell. Biol. 127:1755).
For these experiments, the mouse myoblast cell line, C2C12, was maintained in Dulbecco's Modified Eagle's Medium (DMEM) with 4.5 g/L glucose, 10% FBS, and antibiotics, at 37° C., in a humidified atmosphere containing 95% air and 5% CO2. Cells were seeded at 1.0·10^4 cells per 96-well culture plates. […] Twenty-four hours after transfection, the growth medium was replaced with DMEM containing 2% FBS, and the cells were cultured for an additional six days.
To examine the differentiation of C2C12 cells to osteoblasts, ALP staining was performed as described in Katagiri, T. et al., (1994) J. Cell.

| Substance | increase in expression of human insulin gene [1] | increase in expression of the insulin gene [2] [fold] | cells with strong ALP staining [3] |
| --- | --- | --- | --- |
| 08_D04-p65: ZFP RSHR-RDHT-VSSR with p65 activation domain (SEQ ID NO:6) | more than 60 fold | 80 | – |
| Osteo1-p65: four-finger ZFP RDKR-QTHR1-VSTR-RDKR with p65 activation domain (SEQ ID NO:4) | – | – | about 30% |
